# Like-named read-outs stand apart in the source and are kept apart here.
# How the values were obtained:
# [1] = target: CDK10/Cyclin L2 (Homo sapiens, UniProt Q15131); test: NanoBRET live-cell target engagement, CDK10-NanoLuc/Cyclin L2 in HEK-293; settings: CDK10/L2
# [2] = target: CDK12/Cyclin K (Homo sapiens, UniProt Q9NYV4); test: NanoBRET live-cell target engagement, CDK12-NanoLuc/Cyclin K in HEK-293; type: binding; settings: CDK12/K
# [3] = target: CDK11B/Cyclin L2 (Homo sapiens, UniProt P21127); test: NanoBRET live-cell target engagement, CDK11B-NanoLuc/Cyclin L2 in HEK-293; type: binding; settings: CDK11b/L2
# [4] = target: CDK16/Cyclin Y (Homo sapiens, UniProt Q00536); test: NanoBRET live-cell target engagement, CDK16-NanoLuc/Cyclin Y in HEK-293; type: binding; settings: CDK16/Y
# [5] = target: CDK1/Cyclin E1 (Homo sapiens, UniProt P06493); test: NanoBRET live-cell target engagement, CDK1-NanoLuc/Cyclin E1 in HEK-293; type: binding; settings: CDK1/E1; for IC50: read-out: IC50
# Chain of CDK1/Cyclin E1 (P06493 whole entry): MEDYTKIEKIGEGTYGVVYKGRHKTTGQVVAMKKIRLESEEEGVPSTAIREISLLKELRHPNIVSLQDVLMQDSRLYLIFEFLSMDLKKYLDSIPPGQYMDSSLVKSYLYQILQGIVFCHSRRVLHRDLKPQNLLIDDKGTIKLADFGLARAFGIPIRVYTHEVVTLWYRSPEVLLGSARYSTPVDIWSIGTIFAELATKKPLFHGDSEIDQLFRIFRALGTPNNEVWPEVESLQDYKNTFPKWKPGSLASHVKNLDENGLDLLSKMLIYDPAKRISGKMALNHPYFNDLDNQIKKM
# Chain of CDK1/Cyclin E1 (P24864 whole entry partner): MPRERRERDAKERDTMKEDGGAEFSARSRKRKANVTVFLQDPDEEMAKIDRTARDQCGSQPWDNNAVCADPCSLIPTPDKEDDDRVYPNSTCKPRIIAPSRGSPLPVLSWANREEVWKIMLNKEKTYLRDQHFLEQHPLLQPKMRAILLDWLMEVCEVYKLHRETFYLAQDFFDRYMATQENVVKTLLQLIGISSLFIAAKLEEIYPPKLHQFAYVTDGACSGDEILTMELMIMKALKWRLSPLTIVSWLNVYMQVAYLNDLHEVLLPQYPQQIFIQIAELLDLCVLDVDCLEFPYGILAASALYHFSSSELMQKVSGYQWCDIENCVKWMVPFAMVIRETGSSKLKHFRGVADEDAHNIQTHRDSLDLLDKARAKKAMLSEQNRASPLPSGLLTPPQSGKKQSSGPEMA
# [6] = target: CDK20/Cyclin H (Homo sapiens, UniProt Q8IZL9); test: NanoBRET live-cell target engagement, NanoLuc-CDK20/Cyclin H in HEK-293; type: binding; settings: CDK20/H
# [7] = target: CDK13/Cyclin K (Homo sapiens, UniProt Q14004); test: NanoBRET live-cell target engagement, CDK13-NanoLuc/Cyclin K in HEK-293; type: binding; settings: CDK13/K
# [8] = target: CDK7 (Homo sapiens, UniProt P50613); test: NanoBRET live-cell target engagement, NanoLuc-CDK7 in HEK-293; type: binding; settings: CDK7; for IC50: read-out: IC50
# Chain of CDK7 (P50613 whole entry): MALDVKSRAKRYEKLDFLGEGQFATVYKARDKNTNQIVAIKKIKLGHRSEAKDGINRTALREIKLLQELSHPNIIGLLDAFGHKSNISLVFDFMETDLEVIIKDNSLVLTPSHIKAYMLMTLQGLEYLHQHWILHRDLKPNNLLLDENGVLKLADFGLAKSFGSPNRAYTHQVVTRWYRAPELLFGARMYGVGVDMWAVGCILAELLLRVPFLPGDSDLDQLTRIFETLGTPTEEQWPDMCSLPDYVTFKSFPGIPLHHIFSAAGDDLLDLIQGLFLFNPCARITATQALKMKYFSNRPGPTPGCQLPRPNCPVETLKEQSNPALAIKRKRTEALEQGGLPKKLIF
# [9] = target: CDK8/Cyclin C (Homo sapiens, UniProt P49336); test: NanoBRET live-cell target engagement, NanoLuc-CDK8/Cyclin C in HEK-293; type: binding; settings: CDK8/C; for IC50: read-out: IC50
# [10] = target: CDK2/Cyclin E1 (Homo sapiens, UniProt P24941); test: NanoBRET live-cell target engagement, CDK2-NanoLuc/Cyclin E1 in HEK-293; type: binding; settings: CDK2/E1; for IC50: read-out: IC50
# [11] = target: CDK4/Cyclin D1 (Homo sapiens, UniProt P11802); test: NanoBRET live-cell target engagement, NanoLuc-CDK4/Cyclin D1 in HEK-293; type: binding; settings: CDK4/D1; for IC50: read-out: IC50
# Chain of CDK4/Cyclin D1 (P11802 whole entry): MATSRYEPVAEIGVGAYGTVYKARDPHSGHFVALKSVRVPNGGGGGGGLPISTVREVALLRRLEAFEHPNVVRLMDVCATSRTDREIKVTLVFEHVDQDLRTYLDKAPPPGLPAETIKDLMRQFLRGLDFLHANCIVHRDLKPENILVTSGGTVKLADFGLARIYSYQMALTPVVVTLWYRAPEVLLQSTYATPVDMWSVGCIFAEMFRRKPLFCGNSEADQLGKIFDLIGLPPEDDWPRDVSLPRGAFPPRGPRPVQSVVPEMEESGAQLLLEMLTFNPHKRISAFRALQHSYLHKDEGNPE
# Chain of CDK4/Cyclin D1 (P24385 whole entry partner): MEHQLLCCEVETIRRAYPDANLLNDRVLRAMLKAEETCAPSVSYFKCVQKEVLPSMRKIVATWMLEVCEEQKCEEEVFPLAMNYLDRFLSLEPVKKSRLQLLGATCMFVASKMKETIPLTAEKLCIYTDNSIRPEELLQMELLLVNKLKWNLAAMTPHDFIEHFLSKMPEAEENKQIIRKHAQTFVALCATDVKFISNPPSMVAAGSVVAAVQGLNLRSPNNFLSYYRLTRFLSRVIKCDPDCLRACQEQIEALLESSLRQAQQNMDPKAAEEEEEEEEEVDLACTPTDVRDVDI
# [12] = target: CDK5/CDK5R1 (Homo sapiens, UniProt Q00535); test: NanoBRET live-cell target engagement, CDK5-NanoLuc/CDK5R1 in HEK-293; type: binding; settings: CDK5/CDK5R1; for IC50: read-out: IC50
# Chain of CDK5/CDK5R1 (Q00535 whole entry): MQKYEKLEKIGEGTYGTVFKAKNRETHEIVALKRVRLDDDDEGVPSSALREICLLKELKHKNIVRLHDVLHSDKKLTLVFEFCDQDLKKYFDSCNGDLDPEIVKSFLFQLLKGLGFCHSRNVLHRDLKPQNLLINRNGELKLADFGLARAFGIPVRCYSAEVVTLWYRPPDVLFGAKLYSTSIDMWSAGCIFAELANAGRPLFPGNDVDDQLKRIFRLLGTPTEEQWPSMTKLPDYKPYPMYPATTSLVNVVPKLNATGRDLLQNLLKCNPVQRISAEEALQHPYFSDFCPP
# Chain of CDK5/CDK5R1 (Q15078 whole entry partner): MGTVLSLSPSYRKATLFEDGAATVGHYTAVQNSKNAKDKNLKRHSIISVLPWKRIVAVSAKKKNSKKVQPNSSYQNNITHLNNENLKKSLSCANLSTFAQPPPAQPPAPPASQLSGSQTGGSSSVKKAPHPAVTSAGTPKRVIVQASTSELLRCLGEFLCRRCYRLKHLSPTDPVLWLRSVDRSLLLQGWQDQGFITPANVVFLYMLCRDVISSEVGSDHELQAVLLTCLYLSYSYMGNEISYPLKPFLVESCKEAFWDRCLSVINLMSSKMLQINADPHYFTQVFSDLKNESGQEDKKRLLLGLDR
# [13] = target: CDK15/Cyclin Y (Homo sapiens, UniProt Q96Q40); test: NanoBRET live-cell target engagement, NanoLuc-CDK15/Cyclin Y in HEK-293; type: binding; settings: CDK15/Y
# [14] = target: CDK9/Cyclin K (Homo sapiens, UniProt P50750); test: NanoBRET live-cell target engagement, NanoLuc-CDK9/Cyclin K in HEK-293; type: binding; settings: CDK9/K
# [15] = target: CDK17/Cyclin Y (Homo sapiens, UniProt Q00537); test: NanoBRET live-cell target engagement, CDK17-NanoLuc/Cyclin Y in HEK-293; type: binding; settings: CDK17/Y
# [16] = target: CDK14/Cyclin Y (Homo sapiens, UniProt O94921); test: NanoBRET live-cell target engagement, CDK14-NanoLuc/Cyclin Y in HEK-293; type: binding; settings: CDK14/Y
# [17] = target: T1, CDK11A/Cyclin L2 (Homo sapiens, UniProt Q9UQ88); test: NanoBRET live-cell target engagement, CDK11A-NanoLuc/Cyclin L2 in HEK-293; type: binding; settings: CDK11a/L2
# T1 sequence (Q9UQ88 1-783): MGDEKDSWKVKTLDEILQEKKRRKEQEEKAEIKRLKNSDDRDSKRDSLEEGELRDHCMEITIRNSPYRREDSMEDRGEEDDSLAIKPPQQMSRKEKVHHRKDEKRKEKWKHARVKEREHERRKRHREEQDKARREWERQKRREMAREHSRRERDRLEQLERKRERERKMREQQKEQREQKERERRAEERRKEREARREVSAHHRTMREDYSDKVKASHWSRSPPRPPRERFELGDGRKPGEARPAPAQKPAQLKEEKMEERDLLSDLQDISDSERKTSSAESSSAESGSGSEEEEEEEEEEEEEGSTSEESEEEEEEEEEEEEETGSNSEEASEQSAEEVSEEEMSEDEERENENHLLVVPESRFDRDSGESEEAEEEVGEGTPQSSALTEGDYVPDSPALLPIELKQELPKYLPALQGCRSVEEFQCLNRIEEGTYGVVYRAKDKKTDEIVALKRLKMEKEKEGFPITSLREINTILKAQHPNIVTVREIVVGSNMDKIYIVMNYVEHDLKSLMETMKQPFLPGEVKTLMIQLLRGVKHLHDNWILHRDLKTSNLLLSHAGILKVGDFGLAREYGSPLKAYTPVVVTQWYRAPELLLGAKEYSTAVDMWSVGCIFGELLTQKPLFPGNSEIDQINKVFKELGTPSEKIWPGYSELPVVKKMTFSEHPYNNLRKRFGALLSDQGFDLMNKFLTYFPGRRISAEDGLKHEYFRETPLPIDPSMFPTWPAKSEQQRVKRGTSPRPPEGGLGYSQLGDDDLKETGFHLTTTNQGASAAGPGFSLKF
# [18] = target: CDK19/Cyclin C (Homo sapiens, UniProt Q9BWU1); test: NanoBRET live-cell target engagement, NanoLuc-CDK19/Cyclin C in HEK-293; settings: CDK19/C
# [19] = target: CDK3/Cyclin E1 (Homo sapiens, UniProt Q00526); test: NanoBRET live-cell target engagement, CDK3-NanoLuc/Cyclin E1 in HEK-293; type: binding; settings: CDK3/E1; for IC50: read-out: IC50
# Chain of CDK10/Cyclin L2 (Q15131 whole entry): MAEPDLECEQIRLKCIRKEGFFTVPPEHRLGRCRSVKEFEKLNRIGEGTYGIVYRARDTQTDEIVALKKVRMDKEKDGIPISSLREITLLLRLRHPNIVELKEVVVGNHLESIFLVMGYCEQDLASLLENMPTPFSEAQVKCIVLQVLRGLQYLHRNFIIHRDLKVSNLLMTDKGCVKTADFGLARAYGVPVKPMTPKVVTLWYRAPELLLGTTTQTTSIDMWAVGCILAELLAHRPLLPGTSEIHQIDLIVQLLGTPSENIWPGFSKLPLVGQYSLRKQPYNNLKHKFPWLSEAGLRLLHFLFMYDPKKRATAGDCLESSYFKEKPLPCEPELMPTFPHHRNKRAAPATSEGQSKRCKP
# Chain of CDK12/Cyclin K (Q9NYV4 1-1481 isoform Q9NYV4-2): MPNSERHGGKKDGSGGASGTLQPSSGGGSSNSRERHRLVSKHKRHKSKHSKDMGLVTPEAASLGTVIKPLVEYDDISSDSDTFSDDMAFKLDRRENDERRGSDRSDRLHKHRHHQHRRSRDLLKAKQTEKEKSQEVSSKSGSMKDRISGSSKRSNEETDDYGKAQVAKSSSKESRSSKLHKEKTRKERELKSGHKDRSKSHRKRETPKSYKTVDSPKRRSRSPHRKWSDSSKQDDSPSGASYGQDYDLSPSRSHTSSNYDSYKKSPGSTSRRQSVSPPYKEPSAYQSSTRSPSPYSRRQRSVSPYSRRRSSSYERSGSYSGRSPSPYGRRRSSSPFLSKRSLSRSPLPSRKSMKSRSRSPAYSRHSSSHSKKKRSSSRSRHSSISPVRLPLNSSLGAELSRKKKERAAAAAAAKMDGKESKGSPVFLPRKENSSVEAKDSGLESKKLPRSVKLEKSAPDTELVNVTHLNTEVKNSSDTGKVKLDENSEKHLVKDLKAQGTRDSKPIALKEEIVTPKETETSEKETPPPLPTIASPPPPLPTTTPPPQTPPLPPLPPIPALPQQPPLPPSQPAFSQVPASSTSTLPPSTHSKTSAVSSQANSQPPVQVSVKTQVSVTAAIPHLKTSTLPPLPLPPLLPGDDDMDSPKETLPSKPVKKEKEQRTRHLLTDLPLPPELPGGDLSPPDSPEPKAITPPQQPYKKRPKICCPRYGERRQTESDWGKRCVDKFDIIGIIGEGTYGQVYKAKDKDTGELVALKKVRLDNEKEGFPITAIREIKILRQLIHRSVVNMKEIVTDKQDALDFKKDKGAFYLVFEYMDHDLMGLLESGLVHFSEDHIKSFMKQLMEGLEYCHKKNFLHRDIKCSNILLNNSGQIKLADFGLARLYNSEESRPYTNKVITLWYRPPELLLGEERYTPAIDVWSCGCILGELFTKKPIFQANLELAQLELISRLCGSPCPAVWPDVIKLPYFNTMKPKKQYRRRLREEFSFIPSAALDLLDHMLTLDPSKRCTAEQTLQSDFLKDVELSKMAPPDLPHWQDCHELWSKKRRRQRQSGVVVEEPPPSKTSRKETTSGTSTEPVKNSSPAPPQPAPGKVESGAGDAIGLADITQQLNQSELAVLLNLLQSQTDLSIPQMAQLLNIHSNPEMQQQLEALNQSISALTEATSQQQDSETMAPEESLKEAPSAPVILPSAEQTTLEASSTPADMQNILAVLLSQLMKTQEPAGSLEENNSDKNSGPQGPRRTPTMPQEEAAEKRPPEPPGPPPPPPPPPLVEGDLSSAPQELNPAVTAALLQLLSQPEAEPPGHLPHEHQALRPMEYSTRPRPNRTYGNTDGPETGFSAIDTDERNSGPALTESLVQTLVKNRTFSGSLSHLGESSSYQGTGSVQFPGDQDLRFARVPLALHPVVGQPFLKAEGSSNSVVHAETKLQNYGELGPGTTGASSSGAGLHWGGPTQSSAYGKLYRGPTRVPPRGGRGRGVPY
# Chain of CDK12/Cyclin K (O75909 whole entry partner): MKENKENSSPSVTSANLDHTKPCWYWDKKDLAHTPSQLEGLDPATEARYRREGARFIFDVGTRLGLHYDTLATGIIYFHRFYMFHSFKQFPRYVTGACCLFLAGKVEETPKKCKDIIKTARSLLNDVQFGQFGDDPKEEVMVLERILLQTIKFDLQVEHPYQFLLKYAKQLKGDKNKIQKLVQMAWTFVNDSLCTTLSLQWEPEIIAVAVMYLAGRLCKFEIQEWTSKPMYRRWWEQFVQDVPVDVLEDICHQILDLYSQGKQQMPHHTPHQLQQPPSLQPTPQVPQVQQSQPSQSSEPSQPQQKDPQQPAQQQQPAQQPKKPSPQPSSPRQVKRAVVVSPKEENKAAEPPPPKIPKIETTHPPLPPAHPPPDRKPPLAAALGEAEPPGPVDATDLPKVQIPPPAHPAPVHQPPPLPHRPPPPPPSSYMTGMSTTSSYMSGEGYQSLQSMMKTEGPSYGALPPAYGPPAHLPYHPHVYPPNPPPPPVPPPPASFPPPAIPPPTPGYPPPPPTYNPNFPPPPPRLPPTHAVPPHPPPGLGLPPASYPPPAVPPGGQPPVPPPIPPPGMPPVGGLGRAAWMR
smiles,measurement,setting,value
CCn1cnc2c(Nc3cccc(Cl)c3)nc(N[C@@H]3CCCC[C@@H]3N)nc21 [CGP74514A],Inhibition at 10µM (%),[1]; average,40.2%
same,Inhibition at 10µM (%),[1]; experiment 1,37.4%
same,Inhibition at 10µM (%),[1]; experiment 2,42.9%
same,Inhibition at 10µM (%),[2]; average,36.8%
same,Inhibition at 10µM (%),[2]; experiment 1,42.2%
same,Inhibition at 10µM (%),[2]; experiment 2,31.4%
same,Inhibition at 10µM (%),[3]; average,21.5%
same,Inhibition at 10µM (%),[3]; experiment 1,20.4%
same,Inhibition at 10µM (%),[3]; experiment 2,22.7%
same,Inhibition at 10µM (%),[4]; experiment 1,76.4%
same,Inhibition at 10µM (%),[4]; experiment 2,76.7%
same,Inhibition at 10µM (%),[5]; average,78.9%
same,IC50,[5]; average (± SEM where n=3),130 nM
same,Inhibition at 10µM (%),[5]; experiment 1,77.7%
same,IC50,[5]; experiment 1,100 nM
same,Inhibition at 10µM (%),[5]; experiment 2,80.1%
same,IC50,[5]; experiment 2,163 nM
same,Inhibition at 10µM (%),[6]; experiment 1,40.4%
same,Inhibition at 10µM (%),[6]; experiment 2,47.3%
same,Inhibition at 10µM (%),[7]; average,35.2%
same,Inhibition at 10µM (%),[7]; experiment 1,36.4%
same,Inhibition at 10µM (%),[7]; experiment 2,33.9%
same,Inhibition at 10µM (%),[8]; average,93.3%
same,IC50,[8]; average (± SEM where n=3),95 nM
same,Inhibition at 10µM (%),[8]; experiment 1,96.5%
same,IC50,[8]; experiment 1,100 nM
same,Inhibition at 10µM (%),[8]; experiment 2,90.2%
same,IC50,[8]; experiment 2,90 nM
same,Inhibition at 10µM (%),[9]; average,3.2%
same,IC50,[9]; average (± SEM where n=3),260 nM
same,Inhibition at 10µM (%),[9]; experiment 1,5.8%
same,IC50,[9]; experiment 1,290 nM
same,Inhibition at 10µM (%),[9]; experiment 2,0.659%
same,IC50,[9]; experiment 2,230 nM
same,Inhibition at 10µM (%),[10]; average,94.2%
same,IC50,[10]; average (± SEM where n=3),62 nM
same,Inhibition at 10µM (%),[10]; experiment 1,93.3%
same,IC50,[10]; experiment 1,63 nM
same,Inhibition at 10µM (%),[10]; experiment 2,95.2%
same,IC50,[10]; experiment 2,60 nM
same,Inhibition at 10µM (%),[11]; average,72.2%
same,Inhibition at 10µM (%),[11]; experiment 1,63.2%
same,Inhibition at 10µM (%),[11]; experiment 2,81.2%
same,Inhibition at 10µM (%),[12]; average,93.3%
same,IC50,[12]; average (± SEM where n=3),100 nM
same,Inhibition at 10µM (%),[12]; experiment 1,90.4%
same,IC50,[12]; experiment 1,74 nM
same,Inhibition at 10µM (%),[12]; experiment 2,96.2%
same,IC50,[12]; experiment 2,130 nM
same,Inhibition at 10µM (%),[13]; average,85.2%
same,Inhibition at 10µM (%),[13]; experiment 1,84.1%
same,Inhibition at 10µM (%),[13]; experiment 2,86.4%
same,Inhibition at 10µM (%),[14]; average,71.1%
same,Inhibition at 10µM (%),[14]; experiment 1,68.0%
same,Inhibition at 10µM (%),[14]; experiment 2,74.2%
same,Inhibition at 10µM (%),[15]; average,80.2%
same,Inhibition at 10µM (%),[15]; experiment 1,79.4%
same,Inhibition at 10µM (%),[15]; experiment 2,81.0%
same,Inhibition at 10µM (%),[16]; average,63.7%
same,Inhibition at 10µM (%),[16]; experiment 1,59.7%
same,Inhibition at 10µM (%),[16]; experiment 2,67.6%
same,Inhibition at 10µM (%),[17]; average,29.9%
same,Inhibition at 10µM (%),[17]; experiment 1,16.5%
same,Inhibition at 10µM (%),[17]; experiment 2,43.3%
same,Inhibition at 10µM (%),[18]; average,9.3%
same,Inhibition at 10µM (%),[18]; experiment 1,26.1%
same,Inhibition at 10µM (%),[18]; experiment 2,-7.5%
same,Inhibition at 10µM (%),[19]; average,92.7%
same,IC50,[19]; average (± SEM where n=3),75 nM
same,Inhibition at 10µM (%),[19]; experiment 1,92.6%
same,IC50,[19]; experiment 1,39 nM
same,Inhibition at 10µM (%),[19]; experiment 2,92.8%
same,IC50,[19]; experiment 2,110 nM
CN1CCC(c2c(O)cc(O)c3c(=O)cc(-c4ccccc4Cl)oc23)C1CO (stereo not drawn) [P276-00],Inhibition at 10µM (%),[1]; average,11.6%
same,Inhibition at 10µM (%),[1]; experiment 1,10.1%
same,Inhibition at 10µM (%),[1]; experiment 2,13.1%
same,Inhibition at 10µM (%),[2]; average,3.3%
same,Inhibition at 10µM (%),[2]; experiment 1,2.5%
same,Inhibition at 10µM (%),[2]; experiment 2,4.1%
same,Inhibition at 10µM (%),[3]; average,58.5%
same,Inhibition at 10µM (%),[3]; experiment 1,56.7%
same,Inhibition at 10µM (%),[3]; experiment 2,60.4%
same,Inhibition at 10µM (%),[4]; experiment 1,61.8%
same,Inhibition at 10µM (%),[4]; experiment 2,61.2%
same,Inhibition at 10µM (%),[5]; average,41.0%
same,Inhibition at 10µM (%),[5]; experiment 1,45.9%
same,Inhibition at 10µM (%),[5]; experiment 2,36.2%
same,Inhibition at 10µM (%),[6]; experiment 1,-0.6%
same,Inhibition at 10µM (%),[6]; experiment 2,-6.9%
same,Inhibition at 10µM (%),[7]; average,11.2%
same,Inhibition at 10µM (%),[7]; experiment 1,12.5%
same,Inhibition at 10µM (%),[7]; experiment 2,9.8%
same,Inhibition at 10µM (%),[8]; average,32.2%
same,Inhibition at 10µM (%),[8]; experiment 1,38.1%
same,Inhibition at 10µM (%),[8]; experiment 2,26.2%
same,Inhibition at 10µM (%),[9]; average,79.0%
same,Inhibition at 10µM (%),[9]; experiment 1,82.7%
same,Inhibition at 10µM (%),[9]; experiment 2,75.3%
same,Inhibition at 10µM (%),[10]; average,22.7%
same,Inhibition at 10µM (%),[10]; experiment 1,16.7%
same,Inhibition at 10µM (%),[10]; experiment 2,28.7%
same,Inhibition at 10µM (%),[11]; average,80.8%
same,IC50,[11]; average (± SEM where n=3),400 ± 100 nM
same,Inhibition at 10µM (%),[11]; experiment 1,79.0%
same,IC50,[11]; experiment 1,690 nM
same,Inhibition at 10µM (%),[11]; experiment 2,82.6%
same,IC50,[11]; experiment 2,200 nM
same,IC50,[11]; experiment 3,301 nM
same,Inhibition at 10µM (%),[12]; average,26.1%
same,Inhibition at 10µM (%),[12]; experiment 1,31.1%
same,Inhibition at 10µM (%),[12]; experiment 2,21.1%
same,Inhibition at 10µM (%),[13]; average,28.5%
same,Inhibition at 10µM (%),[13]; experiment 1,33.3%
same,Inhibition at 10µM (%),[13]; experiment 2,23.7%
same,Inhibition at 10µM (%),[14]; average,96.7%
same,Inhibition at 10µM (%),[14]; experiment 1,94.9%
same,Inhibition at 10µM (%),[14]; experiment 2,98.4%
same,Inhibition at 10µM (%),[15]; average,71.1%
same,Inhibition at 10µM (%),[15]; experiment 1,75.5%
same,Inhibition at 10µM (%),[15]; experiment 2,66.7%
same,Inhibition at 10µM (%),[16]; average,50.9%
same,Inhibition at 10µM (%),[16]; experiment 1,51.1%
same,Inhibition at 10µM (%),[16]; experiment 2,50.7%
same,Inhibition at 10µM (%),[17]; average,34.1%
same,Inhibition at 10µM (%),[17]; experiment 1,43.4%
same,Inhibition at 10µM (%),[17]; experiment 2,24.8%
same,Inhibition at 10µM (%),[18]; average,72.1%
same,Inhibition at 10µM (%),[18]; experiment 1,76.3%
same,Inhibition at 10µM (%),[18]; experiment 2,67.9%
same,Inhibition at 10µM (%),[19]; average,51.8%
same,Inhibition at 10µM (%),[19]; experiment 1,52.6%
same,Inhibition at 10µM (%),[19]; experiment 2,51.0%
